Blank lines part the entries; values can stand above or below the compound they belong to.
Key:
U266 cells = experiment: NK-92 NK cell activity against calcein-AM-stained U266 cells; format: cell-based; details: NK-92 cells, 48 h; Pom 0.5 and 1 μM; CC-220 0.1 and 1 μM, E/T 2.5/1
Description: (§1) (A) NK-92 cells were cultured with Pom (0.5 and 1 μM) for 24 h. Whole cell lysates were subjected to immunoblotting using indicated Abs. (B) NK-92 cells were cultured with Pom (0.5 and 1 μM) for 48 h. The cells were subsequently incubated with calcein-AM-stained U266 cells for 4 h at the indicated effector/target (E/T) ratios. Percent specific lysis was calculated as described previously. (C) NK-92 cells were cultured with Pom (0.03-3 μM) for 72 h. Cell growth was assessed by MTT assay. (D) NK-92 cells were transfected with scrambled (Sc) or Zap-70 siRNA (Zap70si). After 72 h incubation, cell viability was measured by trypan-blue dye exclusion. For B, C, and D, data are representative of at least two independent experiments, and values are expressed in mean±SD.
(§2) (A) NK-92 cells were cultured with Len (1 μM), Pom (0.01, 0.1, 1 μM) or CC-220 (0.01, 0.1, 1 μM) for 24 h. Whole cell lysates were subjected to immunoblotting using indicated Abs. (B) NK-92 cells were cultured with Pom (0.1 and 1 μM) or CC-220 ([…]) for 48 h. NK cell activity was measured by incubation with calcein AM-labeled U266 cells for 4 h at E/T ratio of 2.5/1. Percent specific lysis was calculated as previously described. Data are representative of three independent experiments, and values are expressed in mean±SD. *: p<0.01.

Zap-70 [1] = molecular target: T1, Zap-70 (Homo sapiens, UniProt P43403); experiment: Immunoblotting of p-Zap-70 in NK-92 cells; format: cell-based; details: 24 h, Pom 0.5 and 1 μM, CC-220 0.01, 0.1, 1 μM
T1 sequence (P43403 1-619): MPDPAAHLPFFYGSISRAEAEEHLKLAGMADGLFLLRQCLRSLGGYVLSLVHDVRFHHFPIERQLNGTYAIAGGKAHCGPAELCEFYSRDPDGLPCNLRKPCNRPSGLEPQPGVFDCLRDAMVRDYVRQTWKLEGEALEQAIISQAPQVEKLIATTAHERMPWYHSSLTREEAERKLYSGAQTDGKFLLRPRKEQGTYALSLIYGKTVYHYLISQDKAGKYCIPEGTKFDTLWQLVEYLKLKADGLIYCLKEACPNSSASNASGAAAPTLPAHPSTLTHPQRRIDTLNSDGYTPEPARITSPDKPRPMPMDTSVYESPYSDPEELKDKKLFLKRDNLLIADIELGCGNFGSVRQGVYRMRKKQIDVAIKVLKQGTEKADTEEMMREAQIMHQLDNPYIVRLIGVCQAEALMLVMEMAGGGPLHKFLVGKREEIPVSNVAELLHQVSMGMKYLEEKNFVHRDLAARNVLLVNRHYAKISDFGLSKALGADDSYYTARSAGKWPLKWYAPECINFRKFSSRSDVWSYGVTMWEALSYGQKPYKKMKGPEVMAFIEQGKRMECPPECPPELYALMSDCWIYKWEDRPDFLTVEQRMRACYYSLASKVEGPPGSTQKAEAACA
Description: as §1, §2

granzyme-B (GZM-B) = experiment: GZM-B expression in KHYG-1 cells (immunoblotting, real-time qPCR); format: cell-based
Description: (A) KHYG1 cells were cultured with pomalidomide (0.25-1 μM) for 24 h. (B) Isolated primary NK cells from healthy volunteers (#1, #2) were cultured with pomalidomide (0.3-1 μM) for 24 h. (C) KHYG-1 cells were transfected with Scsi or Zap-70si. After 48 h, cells were cultured for 24 h in the absence or presence (0.5 μM) of pomalidomide. Whole cell lysates and RNAs were subjected to immunoblotting using indicated Abs.
(A) KHYG-1 cells were transfected with Scsi or CRBNsi. After 48 h, cells were cultured in the absence or presence of pomalidomide (0.5 μM) for 24 h, and cell lysates immunoblotted with indicated Abs. (B) KHYG-1 cells were transfected with Scsi or Zap-70si, and then cultured for 72 h with pomalidomide (0.25 μM), in the absence of IL-2. Cells were counted and incubated with calcein AM-labeled U266 for 4 h at indicated effector/target (E/T) ratios.
(§3) (A) KHYG-1 cells were transfected with CRBN, IKZF1, or IKZF3 siRNA. The transfectants were then cultured for 24 h with pomalidomide (0.5 μM). The arrow indicates CRBN. (B) KHYG-1 cells were cultured with pomalidomide for 24 h (0.5 μM), in the presence or absence of bortezomib (BTZ; 2.5 and 5 nM). (C, D) KHYG-1 cells were cultured for 24 h with lenalidomide, pomalidomide, or CC-220 (i.e., iberdomide) (0.01-1 μM). Whole cell lysates and RNAs were subjected to immunoblotting using indicated Abs (C) and real-time q-PCR (D), respectively.

CRBN = CRBN (Homo sapiens, UniProt Q96SW2); details: cited from earlier work
IKZF3 = IKZF3 expression in KHYG-1 cells (immunoblotting); format: cell-based
Description: as §3

Zap-70 [2] = molecular target: T1, Zap-70; experiment: Saturation-transfer difference (STD) NMR binding to recombinant Zap-70; parameters: purchased Origene, Rockville, MD; details: Pom 320 μM, Len 2.56 mM, ATP 2.56 mM, Zap-70 approximately 2 μM, deuterated PBS
Description: (§4) (A) Jurkat cells were transfected with scrambled (Sc) siRNA or Zap-70 siRNA. Whole cell lysates were subjected to immunoblotting using indicated Abs. (B) Jurkat cells were treated with lenalidomide ([…]) or pomalidomide (1 and 3 μM) for 4 h and 8 h. Whole cell lysates were subjected to p-Zap ELISA assay. (C) Jurkat whole cell lysates were incubated with pomalidomide-beads in the presence or absence of competitor (1 mM free pomalidomide) for 1 h. After elution, samples were subjected to immunoblotting using anti-Zap-70 Ab. (D) Saturation-transfer difference resulting from the binding of pomalidomide to Zap-70. Pomalidomide is at 320 μM and Zap-70 is approximately 2 μM in deuterated PBS solution. […] (E) Saturation-transfer difference resulting from the binding of pomalidomide to Zap-70 in the presence of 2.56 mMATP. Pomalidomide is at 320 μM and Zap-70 is approximately 2 μM in deuterated PBS solution. […] Note that both ATP and pomalidomide show binding the Zap-70. (F) Non-cell based Zap-70 kinase assay was carried out, according to manufacturer's protocol.
(A) Saturation-transfer difference resulting from the binding of lenalidomide to Zap-70, with lenalidomide (2.56 mM) and Zap-70 (2 μM) in deuterated PBS solution. […] (B) Saturation-transfer difference resulting from the binding of lenalidomide to Zap70 in the presence of 2.56 mM ATP, with lenalidomide (2.56 mM) and Zap-70 (2 μM) in deuterated PBS solution.
Commercial recombinant Zap-70 (Origene, Rockville, MD) was prepared by gel filtration buffer exchange into deuterated phosphate-buffered saline (PBS), which removed any components of the protein storage buffer, including glycerol. Len and Pom were made as d6-DMSO stock solutions and frozen in aliquots prior to use. ATP was stored frozen in aliquots at −20° C. in deuterated PBS. NMR samples were prepared in 5 mm SampleJet tubes to a final volume of 500 μl by adding 5-20 μl of the appropriate IMiD stock solution to the buffer-exchanged protein. The final concentration of protein in the NMR samples was approximately 2 μM. […]

Zap-70 [3] = molecular target: T1, Zap-70; experiment: Immunoblotting of p-Zap-70, p-LAT and p-ERK in PBMCs; format: cell-based; parameters: endogenous in cells; host or cells: primary PBMCs, primary T cells and primary NK cells from healthy volunteers; details: 16 h, Pom 0.01-1 μM, Len 1 μM
Description: (A) PBMCs were cultured with pomalidomide (“Pom”) (0.01-1 μM) for 16 h. […] (B) PBMCs were cultured with pomalidomide (0.1 and 1 μM) for the indicated time periods. (C) PBMCs were cultured with lenalidomide (“Len”) (1 μM) for 16 h. (D) Primary T-cells from healthy volunteer were cultured with pomalidomide (0.25-1 μM) for 16 h. (E) Jurkat cells were cultured with pomalidomide (0.5 and 1 μM) for 16 h. Whole cell lysates were subjected to immunoblotting (A-E) using indicated Abs. (F) Jurkat cells were cultured with pomalidomide (0.01-1 μM) or lenalidomide (0.01-1 μM) for 72 h. Cell growth was assessed by MTT assay.
To characterize the effect of IMiDs on Zap-70 function in immune effector cells, pomalidomide triggered phosphorylation of Zap-70 was evaluated along with its known downstream target linker of activated T-cells (LAT) in PBMCs from healthy volunteers. […] Image J densitometric analysis confirmed 42% increased p-Zap-70 after pomalidomide (1 μM) treatment (FIG. 1A, lower panel). The increased p-Zap-70, p-LAT, as well as downstream p-ERK in PBMCs triggered by pomalidomide is also time-dependent (FIG. 1B). […] Since Zap-70 is a mediator of T-cell receptor signaling, whether IMiDs triggered p-Zap-70 in T cells from healthy volunteers was studied.

Zap-70 [4] = molecular target: T1, Zap-70; experiment: PathScan Phospho-Zap-70 (Tyr319) Sandwich ELISA in Jurkat cells; format: cell-based; details: lenalidomide (1 and 3 μM) or pomalidomide (1 and 3 μM), 4 h and 8 h, Len<Pom
Description: as §4
Phosphorylation of Zap-70 was evaluated using PathScan Phospho-Zap-70 (Tyr319) Sandwich ELISA Kit (Cell Signaling Technology), according to manufacturer's protocol.

[5] = pomalidomide 0.5 μM 24 h, BTZ 2.5 and 5 nM

Chain of CRBN (Q96SW2 whole entry, species assumed): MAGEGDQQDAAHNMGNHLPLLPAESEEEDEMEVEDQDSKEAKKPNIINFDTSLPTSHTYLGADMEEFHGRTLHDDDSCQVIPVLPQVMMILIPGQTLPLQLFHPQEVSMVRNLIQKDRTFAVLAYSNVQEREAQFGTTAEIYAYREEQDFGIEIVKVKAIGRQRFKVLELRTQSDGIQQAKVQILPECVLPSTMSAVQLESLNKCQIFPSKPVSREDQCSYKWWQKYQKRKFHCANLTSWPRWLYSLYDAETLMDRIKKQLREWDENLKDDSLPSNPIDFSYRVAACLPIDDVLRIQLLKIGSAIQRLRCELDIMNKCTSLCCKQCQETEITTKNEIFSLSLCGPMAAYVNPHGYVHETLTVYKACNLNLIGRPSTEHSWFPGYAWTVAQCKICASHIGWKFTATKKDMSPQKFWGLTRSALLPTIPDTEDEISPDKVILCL

SMILES: O=C1CC[C@H](N2Cc3c(OCc4ccc(CN5CCOCC5)cc4)cccc3C2=O)C(=O)N1 [CC-220, iberdomide]
- NK cell activity against U266 cells (percent specific lysis) (U266 cells): enhanced NK cell activity
- p-Zap-70 (immunoblotting) (Zap-70 [1]): induced p-Zap-70 in a dose-dependent fashion
- potency in triggering GZM-B, compared among lenalidomide, pomalidomide and CC-220 (granzyme-B (GZM-B); 0.01-1 μM, 24 h, immunoblotting and real-time qPCR): more potently upregulated GZM-B than lenalidomide or pomalidomide
- binding affinity to CRBN relative to lenalidomide or pomalidomide (CRBN): enhanced binding affinity to CRBN relative to lenalidomide or pomalidomide
- IKZF3 expression (IKZF3; 0.01-1 μM, 24 h): downregulation of IKZF3

SMILES: CC(C)C[C@H](NC(=O)[C@H](Cc1ccccc1)NC(=O)c1cnccn1)B(O)O [bortezomib]
- Pom-induced GZM-B expression in presence of bortezomib (granzyme-B (GZM-B); [5]): downregulated Pom-induced GZM-B expression in a dose-dependent fashion
- IKZF3 expression in presence of bortezomib (IKZF3; [5]): upregulation of IKZF3

SMILES: Nc1ncnc2c1ncn2[C@@H]1O[C@H](COP(=O)(O)OP(=O)(O)OP(=O)(O)O)[C@@H](O)[C@H]1O [ATP]
- direct binding to Zap-70 (STD NMR) (Zap-70 [2]): both ATP and lenalidomide bind to Zap-70

- direct binding to Zap-70 (STD NMR) (Zap-70 [2]): similarly binds to Zap-70
SMILES: Nc1cccc2c1CN(C1CCC(=O)NC1=O)C2=O (stereo not drawn) [lenalidomide]
- phosphorylation of LAT (immunoblotting) (Zap-70 [3]): similarly triggered p-Zap-70 and p-LAT in PBMCs
- phosphorylation of Zap-70 (immunoblotting) (Zap-70 [3]): similarly triggered p-Zap-70 and p-LAT in PBMCs
- p-Zap-70 (Tyr319) by ELISA (Zap-70 [4]): increased p-Zap-70 (Tyr319) in a dose-dependent fashion
